The record followed here is patent US20230348369A1 (Cytokinetics, Inc., priority 2020, published 2023).

Read-outs that look alike come from different tables or passages of the source.

For the test, the target named is human NAMPT (Homo sapiens, UniProt P43490). Briefly: Human recombinant enzyme assay (NMN fluorescence biochemical assay, activation of NAMPT). The procedure, abridged:
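Activation of recombinant human NAMPT (6 nM) with 2.5 mM ATP, 20 μM PRPP and 150 μM nicotinamide in 50 mM HEPES pH 7.2, 1 mM DTT, 1 mM CHAPS, 50 mM NaCl, 100 mM MgCl2; 60 min, ambient temperature. NMN formed was derivatized with acetophenone/KOH/formic acid, fluorescence read at 355/460 nm after 40 min.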

[1] abbreviates: Table A, human recombinant NAMPT, NMN formation, 60 min.
[2] abbreviates: Table A, human recombinant NAMPT, NMN formation, 60 min, read-out: EC50 Human.

Chain of human NAMPT (P43490 whole entry): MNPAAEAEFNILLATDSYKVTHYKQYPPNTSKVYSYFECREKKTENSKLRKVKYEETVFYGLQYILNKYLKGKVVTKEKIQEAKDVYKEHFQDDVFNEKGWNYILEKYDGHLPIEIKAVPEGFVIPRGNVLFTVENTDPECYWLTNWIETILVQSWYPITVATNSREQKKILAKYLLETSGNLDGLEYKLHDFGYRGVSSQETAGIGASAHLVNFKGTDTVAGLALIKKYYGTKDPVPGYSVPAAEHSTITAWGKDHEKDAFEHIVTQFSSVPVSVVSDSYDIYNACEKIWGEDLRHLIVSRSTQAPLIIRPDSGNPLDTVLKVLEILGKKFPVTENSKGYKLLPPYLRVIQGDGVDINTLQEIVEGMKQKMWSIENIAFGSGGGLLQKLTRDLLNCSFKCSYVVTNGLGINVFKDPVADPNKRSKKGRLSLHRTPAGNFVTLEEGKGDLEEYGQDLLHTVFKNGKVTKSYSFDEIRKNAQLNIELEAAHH

A word on the EC50: it is the concentration needed to bring the measured effect to its halfway point. Turning to `Cc1ccc(CC(=O)N2CCC(CCCCNC(=O)NCc3ccc(Cl)cc3)CC2)cn1` [Compound 311, 1-(4-chlorobenzyl)-3-(4-(1-(2-(6-methylpyridin-3-yl)acetyl)piperidin-4-yl)butyl)urea], under setting [1], the “AC1.4 Human” value was determined as 1.2 µM. Also, the half-maximal effective concentration (EC50) under setting [2] is 3.4 µM.
Take `O=C(NCc1ccc(Cl)cc1)NC1CC2(C1)CC(NC(=O)c1cccnc1)C2` (stereo not drawn) [Compound 184, N-(6-(3-(4-chlorobenzyl)ureido)spiro[3.3]heptan-2-yl)nicotinamide]: the “AC1.4 Human” value under setting [1] was 10.0 µM. In addition, the EC50 under setting [2] is 37.9 µM.
Taken in the same sequence, the figures for `COc1ccc(CNC(=O)NC2CC3(C2)CN(C(=O)c2cccc(N4CCOCC4)c2)C3)cc1` [Compound 191, 1-(4-methoxybenzyl)-3-(2-(3-morpholinobenzoyl)-2-azaspiro[3.3]heptan-6-yl)urea] were 1.3 µM and 23.8 µM.
On to `O=C(Cc1ccccc1)NC1CC2(C1)CC(NC(=O)NCc1ccc(Cl)cc1)C2` (stereo not drawn) [Compound 115, N-(6-(3-(4-chlorobenzyl)ureido)spiro[3.3]heptan-2-yl)-2-phenylacetamide], for which the “AC1.4 Human” value under setting [1] was determined as 10.2 µM. The EC50 under setting [2] was found to be 14.7 µM.
Taken in the same sequence, the figures for `COc1ccc(CNC(=O)NCCCCCNC(=O)OC(C)(C)C)cc1` [Compound 36, tert-butyl (5-(3-(4-methoxybenzyl)ureido)pentyl)carbamate] were 9.8 µM and 35.4 µM.
Taken in the same sequence, the figures for `Cc1cccc(N2CC[C@]3(C2)C[C@@H](NC(=O)NCc2ccc(Cl)cc2)C3)n1` [Compound 183, 1-(4-chlorobenzyl)-3-((2r,4s)-6-(6-methylpyridin-2-yl)-6-azaspiro[3.4]octan-2-yl)urea] were 11.2 µM and 56 µM.
Taken in the same sequence, the figures for `NC(=O)c1ccc(CNC(=O)NC2CC3(C2)CN(C(=O)c2ccc(Cl)cc2)C3)cc1` [Compound 224, 4-((3-(2-(4-chlorobenzoyl)-2-azaspiro[3.3]heptan-6-yl)ureido)methyl)benzamide] were 0.6 µM and 47.5 µM.
Take `O=C(CCCCCNC(=O)NCc1ccc(Cl)cc1)NC1CCCCC1` [Compound 257, 6-(3-(4-chlorobenzyl)ureido)-N-cyclohexylhexanamide]: under setting [1], the “AC1.4 Human” value stood at 2.7 µM. For the same compound, the concentration for a half-maximal effect (EC50) under setting [2] was determined as 17.9 µM.
Regarding `COc1ccc(CNC(=O)NC2CC3(C2)CC(C(=O)NC2(c4ccccc4)CC2)C3)cc1` (stereo not drawn) [Compound 43, 6-(3-(4-methoxybenzyl)ureido)-N-(1-phenylcyclopropyl)spiro[3.3]heptane-2-carboxamide], the “AC1.4 Human” value under setting [1] was determined as 4.9 µM. The EC50 under setting [2] was found to be 46.4 µM.
On to `Cc1cc(C(=O)NC2CC3(CC(NC(=O)NCc4ccc(Cl)cc4)C3)C2)ccn1` (stereo not drawn) [Compound 186, N-(6-(3-(4-chlorobenzyl)ureido)spiro[3.3]heptan-2-yl)-2-methylisonicotinamide], for which the “AC1.4 Human” value under setting [1] worked out at 16.0 µM. In addition, the EC50 under setting [2] amounted to 53.4 µM.
As to `COc1ccc(CNC(=O)NC2CC3(C2)CC(C(=O)NC(C)(C)c2ccccc2)C3)cc1` (stereo not drawn) [Compound 70, 6-(3-(4-methoxybenzyl)ureido)-N-(2-phenylpropan-2-yl)spiro[3.3]heptane-2-carboxamide], the EC50 was found to be 38.6 µM. Under setting [1], the “AC1.4 Human” value amounted to 3.9 µM.
Consider `CC(C)(C)OC(=O)N1CC2(CC(NC(=O)NCc3ccc(Cl)cc3)C2)C1` [Compound 197, tert-butyl 6-(3-(4-chlorobenzyl)ureido)-2-azaspiro[3.3]heptane-2-carboxylate], for which the “AC1.4 Human” value under setting [1] was determined as 3.7 µM. Moreover, the EC50 under setting [2] came out at 13.5 µM.
Taken in the same sequence, the figures for `COc1ccc(CNC(=O)NC2CC3(C2)CN(C(=O)c2ccccc2C)C3)cc1` [Compound 148, 1-(4-methoxybenzyl)-3-(2-(2-methylbenzoyl)-2-azaspiro[3.3]heptan-6-yl)urea] were 3.9 µM and 47.1 µM.
Regarding `O=C(NCc1ccc(Cl)cc1)NC1CC2(C1)CN(S(=O)(=O)c1ccccc1Cl)C2` [Compound 216, 1-(4-chlorobenzyl)-3-(2-((2-chlorophenyl)sulfonyl)-2-azaspiro[3.3]heptan-6-yl)urea], under setting [1], the “AC1.4 Human” value was found to be 4.9 µM. Besides, the EC50 under setting [2] came to 20.9 µM.
Taken in the same sequence, the figures for `O=C(NCc1ccc(Cl)cc1)NC1CC2(CC(Cn3cncn3)C2)C1` (stereo not drawn) [Compound 339, 1-(6-((1H-1,2,4-triazol-1-yl)methyl)spiro[3.3]heptan-2-yl)-3-(4-chlorobenzyl)urea] were 4.6 µM and 6.5 µM.
With `COc1ccc(CNC(=O)NC2CC3(C2)CC(C(=O)N2CCN(C4COC4)CC2)C3)cc1` (stereo not drawn) [Compound 111, 1-(4-methoxybenzyl)-3-(6-(4-(oxetan-3-yl)piperazine-1-carbonyl)spiro[3.3]heptan-2-yl)urea], the “AC1.4 Human” value under setting [1] amounted to 1.0 µM. Under setting [2], the EC50 is 26.8 µM.
Taken in the same sequence, the figures for `COc1ccc(CNC(=O)NC2CC3(C2)CC(C(=O)NCc2ccc(C#N)cc2F)C3)cc1` (stereo not drawn) [Compound 77, N-(4-cyano-2-fluorobenzyl)-6-(3-(4-methoxybenzyl)ureido)spiro[3.3]heptane-2-carboxamide] were 7.2 µM and 35.1 µM.
Turning to `COc1ccc(CNC(=O)NC2CC3(C2)CN(C(=O)Cc2ccccc2OC)C3)cc1` [Compound 40, 1-(4-methoxybenzyl)-3-(2-(2-(2-methoxyphenyl)acetyl)-2-azaspiro[3.3]heptan-6-yl)urea], the “AC1.4 Human” value under setting [1] stood at 17.2 µM. In addition, the EC50 under setting [2] came out at 24 µM.
Taken in the same sequence, the figures for `O=C(NCc1ccc(Cl)cc1)NC1CC2(CC(CNC(=O)C3CCOCC3)C2)C1` (stereo not drawn) [Compound 250, N-((6-(3-(4-chlorobenzyl)ureido)spiro[3.3]heptan-2-yl)methyl)tetrahydro-2H-pyran-4-carboxamide] were 1.8 µM and 7.7 µM.
Taken in the same sequence, the figures for `CC(C)(C)OC(=O)N1CC[C@]2(C1)C[C@H](NC(=O)NCc1ccc(Cl)cc1)C2` [Compound 152, tert-butyl (2s,4r)-2-(3-(4-chlorobenzyl)ureido)-6-azaspiro[3.4]octane-6-carboxylate] were 7.9 µM and 38.3 µM.
For the compound `COc1ccc(CNC(=O)NC2CC3(C2)CC(C(=O)NC2CC(c4ccncc4)C2)C3)cc1` (stereo not drawn) [Compound 78, 6-(3-(4-methoxybenzyl)ureido)-N-(3-(pyridin-4-yl)cyclobutyl)spiro[3.3]heptane-2-carboxamide], the “AC1.4 Human” value under setting [1] was 4.4 µM. Besides, under setting [2], the EC50 was 45.2 µM.
Taken in the same sequence, the figures for `COc1ccc(CNC(=O)NC2CC3(C2)CC(C(=O)N[C@@H]2CCc4ccccc4C2)C3)cc1` (stereo partly drawn) [Compound 96, (R)-6-(3-(4-methoxybenzyl)ureido)-N-(1,2,3,4-tetrahydronaphthalen-2-yl)spiro[3.3]heptane-2-carboxamide] were 2.6 µM and 4.1 µM.
As for `COc1ccc(CNC(=O)NC2CC3(C2)CC(NC(=O)c2ccccc2)C3)cc1` (stereo not drawn) [Compound 18, N-(6-(3-(4-methoxybenzyl)ureido)spiro[3.3]heptan-2-yl)benzamide], the “AC1.4 Human” value under setting [1] was 18.9 µM. Further, the EC50 under setting [2] was 60.2 µM.
Turning to `[2H]C([2H])(NC(=O)NCCCCC1CCN(C(=O)c2ccccc2)CC1)c1cnco1` [Compound 324, 1-(4-(1-benzoylpiperidin-4-yl)butyl)-3-(oxazol-5-ylmethyl-d2)urea], the “AC1.4 Human” value under setting [1] came to 0.2 µM. The EC50 under setting [2] was 1.9 µM.
